The source made the active and inactive calls. The calls are words filed in the database; no cut-off is given here. Peptide text beside a SMILES is read from it. * marks the point of attachment. X1 = CN(C)c1ccc2c(-c3ccc(C(=O)*)cc3C(=O)O)c3ccc(=[N+](C)C)cc-3oc2c1
Experiments:
NSC-34 [1] = experiment: Inhibition of interaction of CFP-tagged human SOD1 G93A mutant with YFP-tagged MDH1 transfected in mouse NSC-34 cells by FRET assay; format: cell-based; set-up: scale not given: the % may be the effect or the level left
[2] = Increase in ATP level in mouse NSC-34 cells expressing human SOD1 G93A mutant at 1 uM after 48 hrs relative to cells expressing wild type human SOD1; format: functional
[3] = Drug penetration in mouse NSC-34 cells at 1 uM after 24 hrs by fluorescence confocal microscopy; format: ADME, cell-based; details: nsc-34, 24 h
[4] = Protective effect against rotenone-induced toxicity in mouse NSC-34 cells expressing GFP-tagged human SOD1 G93A mutant assessed as increase in survival at 1 uM after 48 hrs by methylene blue assay relative to rotenone-treated cells expressing GFP-tagged wild type human SOD1; format: functional
NSC-34 [5] = experiment: Inhibition of interaction of human SOD1 G93A mutant with YFP-tagged MDH1 transfected in mouse NSC-34 cells after 48 hrs by pull-down immunoprecipitation analysis; format: cell-based
[6] = Protective effect against 2 mg/ml glucose-induced toxicity in mouse NSC-34 cells expressing GFP-tagged human SOD1 G93A mutant assessed as increase in survival at 1 uM after 48 hrs by methylene blue assay relative to 2 mg/ml glucose-treated cells expressing GFP-tagged wild type human SOD1; format: functional

| Molecule | Activity (NSC-34 [1]) | Activity [2] [%] | Drug uptake [3] [%] | Activity [4] [%] | inhibition (NSC-34 [5]) | Activity [6] [%] |
| --- | --- | --- | --- | --- | --- | --- |
| H-GQIAYSLLYSIGNGS-OH | inactive |  |  |  |  |  |
| CC[C@H](C)[C@H](NC(=O)[C@H](Cc1ccccc1)NC(=O)[C@H](CCC(=O)O)NC(=O)CNC(=O)[C@H](CCCCN)NC(=O)[C@H](CC(C)C)NC(=O)[C@H](Cc1c[nH]c2ccccc12)NC(=O)[C@H](CO)NC(=O)c1ccc(-c2c3ccc(=[N+](C)C)cc-3oc3cc(N(C)C)ccc23)c(C(=O)O)c1)C(=O)N[C@H](C(=O)N[C@H](C(=O)N[C@H](C(=O)N[C@@H](CCC(N)=O)C(=O)N[C@@H](CCC(N)=O)C(=O)N[C@@H](CCCNC(=N)N)C(=O)NCC(=O)N[C@@H](C)C(=O)N[C@@H](C)C(=O)N[C@H](C(=O)N[C@H](C(=O)N[C@@H](CCCCN)C(=O)N[C@@H](C)C(=O)N[C@@H](CCCNC(=N)N)C(=O)N[C@@H](CCCCN)C(=O)O)[C@@H](C)CC)C(C)C)C(C)C)[C@@H](C)O)[C@@H](C)O (X1-SWLKGEFITTVQQRGAAVIKARK-OH) |  | 90 | 100 | 98 | Active | 97 |
| H-SWLKGEFITTVQQRGAAVIKARK-OH | 79% |  |  |  |  |  |
| CC(C)C[C@H](NC(=O)[C@H](CC(N)=O)NC(=O)c1ccc(-c2c3ccc(=[N+](C)C)cc-3oc3cc(N(C)C)ccc23)c(C(=O)O)c1)C(=O)N[C@@H](CO)C(=O)O |  |  | 100 |  | inactive |  |

Reference: ChEMBL document CHEMBL1153521, “A novel decoy that interrupts G93A-superoxide dismutase gain of interaction with malate dehydrogenase improves survival in an amyotrophic lateral sclerosis cell model” (J Med Chem, 2009)
